Test results taken from patent publication US20070128217A1 (priority 2003, published 2007).

Tests used:
[1] = system: antibodies in sera from SARS patients (sera 1a, 1b, 2, 6, 37, 62, London, SARS-yellow, SARS-green); assay type: binding, human; parameters: Binding of serum 6 to linear peptides of protein X1 of SARS-CoV Urbani / Binding of serum 37 to linear peptides of protein X1 of SARS-CoV Urbani / Binding of serum 6 to looped/cyclic peptide (PEPSCAN-ELISA) / Binding of serum 37 to looped/cyclic peptide (PEPSCAN-ELISA) / Binding of serum 37 to looped/cyclic peptides of protein X1 of SARS-CoV Urbani / Binding of serum 6 to linear peptides of protein X2 / Binding of serum 37 to linear peptides of protein X2 / Binding of serum 37 to looped/cyclic peptides of protein X2 of SARS-CoV Urbani / Binding of serum 6 to linear peptides of protein M of SARS-CoV Urbani / Binding of serum 37 to linear peptides of protein M of SARS-CoV Urbani / Binding of serum 6 to looped/cyclic peptides of protein M of SARS-CoV Urbani / Binding of serum 37 to looped/cyclic peptides of protein M of SARS-CoV Urbani / Binding of serum 6 to linear peptides of protein X3 of SARS-CoV Urbani / Binding of serum 37 to linear peptides of protein X3 of SARS-CoV Urbani / Binding of serum 37 to looped/cyclic peptides of protein X3 of SARS-CoV Urbani / Binding of serum 6 to linear peptides of protein X4 of SARS-CoV Urbani / Binding of serum 37 to linear peptides of protein X4 of SARS-CoV Urbani / Binding of serum 37 to looped/cyclic peptides of protein X4 of SARS-CoV Urbani / Binding of serum 6 to linear peptides of protein X5 of SARS-CoV Urbani / Binding of serum 37 to linear peptides of protein X5 of SARS-CoV Urbani / Binding of serum 37 to looped/cyclic peptides of protein X5 of SARS-CoV Urbani / Binding of serum 6 to linear peptides of protein N of SARS-CoV Urbani / Binding of serum 37 to linear peptides of protein N of SARS-CoV Urbani / Binding of serum 6 to linear peptide (PEPSCAN-ELISA) / Binding of serum 1a to looped/cyclic peptides of protein N of SARS-CoV Urbani / Binding of serum 1b to looped/cyclic peptides of protein N of SARS-CoV Urbani / Binding of serum 2 to looped/cyclic peptides of protein N of SARS-CoV Urbani / Binding of serum 6 to looped/cyclic peptides of protein N of SARS-CoV Urbani / Binding of serum 37 to looped/cyclic peptides of protein N of SARS-CoV Urbani / Binding of serum 62 to looped/cyclic peptides of protein N of SARS-CoV Urbani / Binding of serum London to looped/cyclic peptides of protein N of SARS-CoV Urbani / Binding of serum SARS-green to looped/cyclic peptides of protein N of SARS-CoV Urbani: unit not given here
[2] = system: control sera (pooled serum of ten healthy LUMC hospital workers; commercial negative donor pooled serum from the Dutch bloodbank); assay type: binding, human; parameters: Binding of Control serum LUMC to linear peptides / Binding of Control serum Blood-bank to linear peptides / Binding of Control serum LUMC to looped peptides / Binding of Control Serum Blood-Bank to Looped peptides / Binding of Control serum LUMC to linear peptides of the protein M of SARS-CoV Urbani / Binding of Control serum Blood-bank to linear peptides of the protein M of SARS-CoV Urbani / Binding of Control serum LUMC to looped peptides of the protein M of SARS-CoV Urbani / Binding of Control Serum Blood-Bank to Looped peptides of the protein M of SARS-CoV Urbani: unit not given here
[3] = system: rabbit serum obtained by immunizing a rabbit with the SARS-CoV strain Frankfurt 1; assay type: binding; parameters: Binding of a rabbit serum to linear peptides / Binding of a rabbit serum to looped peptides / Rabbit serum linear peptides / Rabbit serum looped peptides / Binding of a rabbit serum to linear peptides of protein N of SARS-CoV Urbani (Rabbit serum linear peptides) / Binding of a rabbit serum to looped/cyclic peptides of protein N of SARS-CoV Urbani (Rabbit serum looped peptides): unit not given here

RGTIVTRPLMESELV
Binding of serum 1a to linear peptides of protein M of SARS-CoV Urbani [1]: 0.9 | Binding of serum 1b to linear peptides of protein M of SARS-CoV Urbani [1]: 0.6 | Binding of serum 2 to linear peptides of protein M of SARS-CoV Urbani [1]: 0.6 | Binding of serum 6 to linear peptides of protein M of SARS-CoV Urbani [1]: 0.4 | Binding of serum 37 to linear peptides of protein M of SARS-CoV Urbani [1]: 0.9 | Binding of serum 62 to linear peptides of protein M of SARS-CoV Urbani [1]: 0.9 | Binding of serum London to linear peptides of protein M of SARS-CoV Urbani [1]: 0.3 | Binding of serum SARS-green to linear peptides of protein M of SARS-CoV Urbani [1]: 0.3 | Binding of serum SARS-yellow to linear peptides of protein M of SARS-CoV Urbani [1]: 0.1 | Recognition of the peptide by sera of SARS-CoV infected individuals, and form (linear, looped/cyclic) in which it is recognized [1]: recognized in looped/cyclic form | Binding of Control Serum Blood-Bank to Looped peptides of the protein M of SARS-CoV Urbani [2]: 0.6 | Binding of Control serum Blood-bank to linear peptides of the protein M of SARS-CoV Urbani [2]: 0.7 | Binding of Control serum LUMC to linear peptides of the protein M of SARS-CoV Urbani [2]: 0.4 | Binding of Control serum LUMC to looped peptides of the protein M of SARS-CoV Urbani [2]: 0.8 | Rabbit serum linear peptides [3]: 0.3 | Rabbit serum looped peptides [3]: 0.3

RIAIWNLDVIISSIV
Binding of serum 1a to linear peptides of protein X3 of SARS-CoV Urbani [1]: 0.7 | Binding of serum 1a to looped/cyclic peptides of protein X3 of SARS-CoV Urbani [1]: 0.8 | Binding of serum 1b to linear peptides of protein X3 of SARS-CoV Urbani [1]: 0.3 | Binding of serum 1b to looped/cyclic peptides of protein X3 of SARS-CoV Urbani [1]: 0.5 | Binding of serum 2 to linear peptides of protein X3 of SARS-CoV Urbani [1]: 0.6 | Binding of serum 2 to looped/cyclic peptides of protein X3 of SARS-CoV Urbani [1]: 0.8 | Binding of serum 6 to linear peptides of protein X3 of SARS-CoV Urbani [1]: 0.5 | Binding of serum 6 to looped/cyclic peptides of protein X3 of SARS-CoV Urbani [1]: 0.4 | Binding of serum 37 to linear peptides of protein X3 of SARS-CoV Urbani [1]: 0.5 | Binding of serum 37 to looped/cyclic peptides of protein X3 of SARS-CoV Urbani [1]: 0.6 | Binding of serum 62 to linear peptides of protein X3 of SARS-CoV Urbani [1]: 0.7 | Binding of serum 62 to looped/cyclic peptides of protein X3 of SARS-CoV Urbani [1]: 0.7 | Binding of serum London to linear peptides of protein X3 of SARS-CoV Urbani [1]: 0.7 | Binding of serum London to looped/cyclic peptides of protein X3 of SARS-CoV Urbani [1]: 0.2 | Binding of serum SARS-green to linear peptides of protein X3 of SARS-CoV Urbani [1]: 0.3 | Binding of serum SARS-green to looped/cyclic peptides of protein X3 of SARS-CoV Urbani [1]: 0.3 | Binding of serum SARS-yellow to linear peptides of protein X3 of SARS-CoV Urbani [1]: 0.4 | Binding of serum SARS-yellow to looped/cyclic peptides of protein X3 of SARS-CoV Urbani [1]: 1.0 | Binding of Control Serum Blood-Bank to Looped peptides of the protein X3 of SARS-CoV Urbani [2]: 0.9 | Binding of Control serum Blood-bank to linear peptides of the protein X3 of SARS-CoV Urbani [2]: 0.7 | Binding of Control serum LUMC to linear peptides of the protein X3 of SARS-CoV Urbani [2]: 0.6 | Binding of Control serum LUMC to looped peptides of the protein X3 of SARS-CoV Urbani [2]: 0.8 | Rabbit serum linear peptides [3]: 0.3 | Rabbit serum looped peptides [3]: 0.4

RIGNYKLNTDHAGSN
Binding of serum 1a to linear peptides of protein M of SARS-CoV Urbani [1]: 0.7 | Binding of serum 1a to looped/cyclic peptides of protein M of SARS-CoV Urbani [1]: 0.6 | Binding of serum 1b to linear peptides of protein M of SARS-CoV Urbani [1]: 0.5 | Binding of serum 1b to looped/cyclic peptides of protein M of SARS-CoV Urbani [1]: 0.5 | Binding of serum 2 to linear peptides of protein M of SARS-CoV Urbani [1]: 0.6 | Binding of serum 2 to looped/cyclic peptides of protein M of SARS-CoV Urbani [1]: 0.5 | Binding of serum 6 to linear peptides of protein M of SARS-CoV Urbani [1]: 0.3 | Binding of serum 6 to looped/cyclic peptides of protein M of SARS-CoV Urbani [1]: 0.7 | Binding of serum 37 to linear peptides of protein M of SARS-CoV Urbani [1]: 0.5 | Binding of serum 37 to looped/cyclic peptides of protein M of SARS-CoV Urbani [1]: 0.6 | Binding of serum 62 to linear peptides of protein M of SARS-CoV Urbani [1]: 0.6 | Binding of serum 62 to looped/cyclic peptides of protein M of SARS-CoV Urbani [1]: 0.6 | Binding of serum London to linear peptides of protein M of SARS-CoV Urbani [1]: 0.6 | Binding of serum London to looped/cyclic peptides of protein M of SARS-CoV Urbani [1]: 0.4 | Binding of serum SARS-green to linear peptides of protein M of SARS-CoV Urbani [1]: 0.6 | Binding of serum SARS-green to looped/cyclic peptides of protein M of SARS-CoV Urbani [1]: 0.2 | Binding of serum SARS-yellow to linear peptides of protein M of SARS-CoV Urbani [1]: 0.1 | Binding of serum SARS-yellow to looped/cyclic peptides of protein M of SARS-CoV Urbani [1]: 0.6 | Binding of Control Serum Blood-Bank to Looped peptides of the protein M of SARS-CoV Urbani [2]: 0.8 | Binding of Control serum Blood-bank to linear peptides of the protein M of SARS-CoV Urbani [2]: 0.9 | Binding of Control serum LUMC to linear peptides of the protein M of SARS-CoV Urbani [2]: 0.6 | Binding of Control serum LUMC to looped peptides of the protein M of SARS-CoV Urbani [2]: 0.8 | Rabbit serum linear peptides [3]: 0.1 | Rabbit serum looped peptides [3]: 0.2

RLLACLCKHKKVSTN
Binding of serum 1a to looped/cyclic peptides of protein X2 of SARS-CoV Urbani [1]: 0.3 | Binding of serum 1b to looped/cyclic peptides of protein X2 of SARS-CoV Urbani [1]: 0.2 | Binding of serum 2 to looped/cyclic peptides of protein X2 of SARS-CoV Urbani [1]: 0.3 | Binding of serum 6 to looped/cyclic peptides of protein X2 of SARS-CoV Urbani [1]: 0.3 | Binding of serum 37 to looped/cyclic peptides of protein X2 of SARS-CoV Urbani [1]: 0.3 | Binding of serum 62 to looped/cyclic peptides of protein X2 of SARS-CoV Urbani [1]: 0.5 | Binding of serum London to looped/cyclic peptides of protein X2 of SARS-CoV Urbani [1]: 0.2 | Binding of serum SARS-green to looped/cyclic peptides of protein X2 of SARS-CoV Urbani [1]: 0.3 | Binding of serum SARS-yellow to looped/cyclic peptides of protein X2 of SARS-CoV Urbani [1]: 0.4 | Recognition of the peptide by sera of SARS-CoV infected individuals, and form (linear, looped/cyclic) in which it is recognized [1]: recognized in linear form | Binding of Control Serum Blood-Bank to Looped peptides [2]: 0.3 | Binding of Control serum Blood-bank to linear peptides [2]: 0.9 | Binding of Control serum LUMC to linear peptides [2]: 0.7 | Binding of Control serum LUMC to looped peptides [2]: 0.4 | Binding of a rabbit serum to linear peptides [3]: 0.3 | Binding of a rabbit serum to looped peptides [3]: 0.4

RNRFLYIIKLVFLWL
Binding of serum 1a to linear peptides of protein M of SARS-CoV Urbani [1]: 0.6 | Binding of serum 1b to linear peptides of protein M of SARS-CoV Urbani [1]: 0.5 | Binding of serum 2 to linear peptides of protein M of SARS-CoV Urbani [1]: 0.4 | Binding of serum 6 to linear peptides of protein M of SARS-CoV Urbani [1]: 0.5 | Binding of serum 37 to linear peptides of protein M of SARS-CoV Urbani [1]: 0.4 | Binding of serum 62 to linear peptides of protein M of SARS-CoV Urbani [1]: 0.5 | Binding of serum London to linear peptides of protein M of SARS-CoV Urbani [1]: 0.3 | Binding of serum SARS-green to linear peptides of protein M of SARS-CoV Urbani [1]: 0.4 | Binding of serum SARS-yellow to linear peptides of protein M of SARS-CoV Urbani [1]: 0.3 | Recognition of the peptide by sera of SARS-CoV infected individuals, and form (linear, looped/cyclic) in which it is recognized [1]: recognized in looped/cyclic form | Binding of Control Serum Blood-Bank to Looped peptides of the protein M of SARS-CoV Urbani [2]: 0.7 | Binding of Control serum Blood-bank to linear peptides of the protein M of SARS-CoV Urbani [2]: 0.6 | Binding of Control serum LUMC to linear peptides of the protein M of SARS-CoV Urbani [2]: 0.7 | Binding of Control serum LUMC to looped peptides of the protein M of SARS-CoV Urbani [2]: 0.8 | Rabbit serum linear peptides [3]: 0.4 | Rabbit serum looped peptides [3]: 0.5
